Columns and labels:
Assay type in all cases: biochemical
JAK1 = molecular target: T1, JAK1 (Homo sapiens, UniProt P23458); experiment: JAK1 kinase assay (HTRF, inhibition of phosphorylation of a synthetic peptide); conditions: catalytic domain aa 850-1154, GST-tag; 7 μM ATP (Km); read-out: JAK1 kinase inhibitory activity (EC50)
T1 construct: JAK1 (aa 850-1154) and TYK2 (aa 871-1187) are expressed with an N-terminally fused GST-tag; GST (N); purchased Carna Biosciences, Inc; host or cells: baculovirus expression system
T1 sequence (P23458 850-1154): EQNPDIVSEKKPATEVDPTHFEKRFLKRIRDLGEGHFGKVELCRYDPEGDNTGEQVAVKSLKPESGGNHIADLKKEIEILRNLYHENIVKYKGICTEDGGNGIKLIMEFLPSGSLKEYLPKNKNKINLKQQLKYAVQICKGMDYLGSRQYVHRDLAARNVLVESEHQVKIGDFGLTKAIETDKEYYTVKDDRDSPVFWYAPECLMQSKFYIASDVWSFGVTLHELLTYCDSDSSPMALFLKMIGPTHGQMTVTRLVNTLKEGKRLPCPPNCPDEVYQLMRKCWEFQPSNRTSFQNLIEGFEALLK
Procedure, shortened: (§1)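 Baculovirus-expressed catalytic domains (GST-JAK1 aa 850-1154, GST-TYK2 aa 871-1187, His-JAK2, His-JAK3) phosphorylate 1 μM biotin-TK peptide 20-30 min at RT in 50 mM Hepes pH 7.0 with ATP at Km: JAK1 7 μM, JAK2 4 μM, JAK3 2 μM, TYK2 13 μM; 0.75% DMSO. Stopped with EDTA, HTRF read overnight.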

JAK2 = molecular target: T2, JAK2 (Homo sapiens, UniProt O60674); experiment: JAK2 kinase assay (HTRF, inhibition of phosphorylation of a synthetic peptide); conditions: catalytic domain, His-tag; 4 μM ATP (Km); read-out: JAK2 kinase inhibitory activity (EC50)
T2 construct: All four purified enzymes contain only the catalytic domain; His (N); purchased Carna Biosciences, Inc; host or cells: baculovirus expression system
T2 sequence (O60674 849-1124 limits assumed): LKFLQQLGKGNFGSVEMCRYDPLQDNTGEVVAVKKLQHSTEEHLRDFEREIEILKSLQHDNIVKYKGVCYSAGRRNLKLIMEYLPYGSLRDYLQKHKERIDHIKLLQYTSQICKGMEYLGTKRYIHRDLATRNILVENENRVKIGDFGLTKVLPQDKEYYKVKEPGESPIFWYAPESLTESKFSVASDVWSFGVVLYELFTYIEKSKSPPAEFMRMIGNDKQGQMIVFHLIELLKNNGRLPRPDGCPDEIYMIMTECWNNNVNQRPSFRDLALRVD
Procedure, shortened: as §1

JAK3 = molecular target: T3, JAK3 (Homo sapiens, UniProt P52333); experiment: JAK3 kinase assay (HTRF, inhibition of phosphorylation of a synthetic peptide); conditions: catalytic domain, His-tag; 2 μM ATP (Km); read-out: JAK3 kinase inhibitory activity (EC50)
T3 construct: All four purified enzymes contain only the catalytic domain; His (N); purchased Carna Biosciences, Inc; host or cells: baculovirus expression system
T3 sequence (P52333 822-1111 limits assumed): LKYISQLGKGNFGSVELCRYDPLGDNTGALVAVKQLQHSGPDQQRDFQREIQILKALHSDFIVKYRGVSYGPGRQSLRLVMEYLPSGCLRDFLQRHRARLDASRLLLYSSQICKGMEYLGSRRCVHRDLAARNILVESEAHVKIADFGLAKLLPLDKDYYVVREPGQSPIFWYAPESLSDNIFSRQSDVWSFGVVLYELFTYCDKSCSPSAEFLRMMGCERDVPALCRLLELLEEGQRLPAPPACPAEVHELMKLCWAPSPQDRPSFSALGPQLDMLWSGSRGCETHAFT
Procedure, shortened: as §1

TYK2 = molecular target: T4, TYK2 (Homo sapiens, UniProt P29597); experiment: TYK2 kinase assay (HTRF, inhibition of phosphorylation of a synthetic peptide); conditions: catalytic domain aa 871-1187, GST-tag; 13 μM ATP (Km); read-out: TYK2 kinase inhibitory activity (EC50)
T4 construct: JAK1 (aa 850-1154) and TYK2 (aa 871-1187) are expressed with an N-terminally fused GST-tag; GST (N); purchased Carna Biosciences, Inc; host or cells: baculovirus expression system
T4 sequence (P29597 871-1187): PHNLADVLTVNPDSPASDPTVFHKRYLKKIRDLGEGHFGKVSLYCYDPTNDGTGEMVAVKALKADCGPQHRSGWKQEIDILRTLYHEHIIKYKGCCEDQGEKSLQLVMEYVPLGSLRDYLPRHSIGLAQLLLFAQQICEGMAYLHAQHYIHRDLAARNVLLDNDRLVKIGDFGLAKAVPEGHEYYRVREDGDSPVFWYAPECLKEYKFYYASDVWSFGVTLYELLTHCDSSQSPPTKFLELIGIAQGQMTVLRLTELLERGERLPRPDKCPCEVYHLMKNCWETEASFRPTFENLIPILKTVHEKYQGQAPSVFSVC
Procedure, shortened: as §1

| EC50 (JAK1) | EC50 (JAK2) | EC50 (JAK3) | EC50 (TYK2) | SMILES |
| --- | --- | --- | --- | --- |
| > 1 µM | > 1 µM | > 1 µM | > 1 µM | N#CCc1ccccc1C(=O)N1CCN(c2ncnc3[nH]ccc23)CCC12CC2 [Example 48, 2-[2-[6-(7H-pyrrolo[2,3-d]pyrimidin-4-yl)-6,9-diazaspiro[2.6]nonane-9-carbonyl]phenyl]acetonitrile] |
| 0.1 to 1 µM | 0.1 to 1 µM | 0.1 to 1 µM | > 1 µM | N#CCCC(=O)N1CCN(c2ncnc3[nH]ccc23)CCC12CC2 [Example 49, 4-oxo-4-[6-(7H-pyrrolo[2,3-d]pyrimidin-4-yl)-6,9-diazaspiro[2.6]nonan-9-yl]butanenitrile] |
| < 0.1 µM | < 0.1 µM | < 0.1 µM | 0.1 to 1 µM | N#Cc1ccc(C(=O)N2CCN(c3ncnc4[nH]ccc34)CC3(CC3)C2)s1 [Example 51, 5-[5-(7H-pyrrolo[2,3-d]pyrimidin-4-yl)-5,8-diazaspiro[2.6]nonane-8-carbonyl]thiophene-2-carbonitrile] |
| < 0.1 µM | < 0.1 µM | 0.1 to 1 µM | > 1 µM | N#Cc1ccc(C(=O)N2CCCN(c3ncnc4[nH]ccc34)CC23CC3)cc1 [Example 56, 4-[5-(7H-pyrrolo[2,3-d]pyrimidin-4-yl)-5,9-diazaspiro[2.6]nonane-9-carbonyl]benzonitrile] |
| 0.1 to 1 µM | < 0.1 µM | 0.1 to 1 µM | 0.1 to 1 µM | N#Cc1cccc(C(=O)N2CCCN(c3ncnc4[nH]ccc34)CC23CC3)c1 [Example 57, 3-[5-(7H-pyrrolo[2,3-d]pyrimidin-4-yl)-5,9-diazaspiro[2.6]nonane-9-carbonyl]benzonitrile] |
| > 1 µM | > 1 µM | > 1 µM | > 1 µM | N#Cc1cccc(CC(=O)N2CCCN(c3ncnc4[nH]ccc34)CC23CC3)c1 [Example 58, 3-[2-oxo-2-[5-(7H-pyrrolo[2,3-d]pyrimidin-4-yl)-5,9-diazaspiro[2.6]nonan-9-yl]ethyl]benzonitrile] |
| 0.1 to 1 µM | 0.1 to 1 µM | > 1 µM | > 1 µM | N#Cc1ccc(CC(=O)N2CCCN(c3ncnc4[nH]ccc34)CC23CC3)cc1 [Example 59, 4-[2-oxo-2-[5-(7H-pyrrolo[2,3-d]pyrimidin-4-yl)-5,9-diazaspiro[2.6]nonan-9-yl]ethyl]benzonitrile] |
| 0.1 to 1 µM | < 0.1 µM | 0.1 to 1 µM | > 1 µM | N#CC1(C(=O)N2CCCN(c3ncnc4[nH]ccc34)CC23CC3)CC1 [Example 60, 1-[5-(7H-pyrrolo[2,3-d]pyrimidin-4-yl)-5,9-diazaspiro[2.6]nonane-9-carbonyl]cyclopropanecarbonitrile] |
| 0.1 to 1 µM | 0.1 to 1 µM | 0.1 to 1 µM | > 1 µM | N#CCCC(=O)N1CCCN(c2ncnc3[nH]ccc23)CC12CC2 [Example 61, 4-oxo-4-[5-(7H-pyrrolo[2,3-d]pyrimidin-4-yl)-5,9-diazaspiro[2.6]nonan-9-yl]butanenitrile] |
| 0.1 to 1 µM | 0.1 to 1 µM | 0.1 to 1 µM | > 1 µM | N#Cc1ccc(C(=O)N2CCN(c3ncnc4[nH]ccc34)CC3(CC3)C2)cc1 [Example 62, 4-[5-(7H-pyrrolo[2,3-d]pyrimidin-4-yl)-5,8-diazaspiro[2.6]nonane-8-carbonyl]benzonitrile] |

More lines, now with the values behind:

| SMILES | EC50 (JAK1) | EC50 (JAK2) | EC50 (JAK3) | EC50 (TYK2) |
| --- | --- | --- | --- | --- |
| O=C(c1ccc(S(=O)(=O)NCCc2cccs2)cc1)N1CCN(c2ncnc3[nH]ccc23)CC2(CC2)C1 [Example 50, 4-[5-(7H-pyrrolo[2,3-d]pyrimidin-4-yl)-5,8-diazaspiro[2.6]nonane-8-carbonyl]-N-[2-(2-thienyl)ethyl]benzenesulfonamide] | 0.1 to 1 µM | 0.1 to 1 µM | 0.1 to 1 µM | > 1 µM |
| COc1cc(S(N)(=O)=O)ccc1C(=O)N1CCN(c2ncnc3[nH]ccc23)CC2(CC2)C1 [Example 52, 3-methoxy-4-[5-(7H-pyrrolo[2,3-d]pyrimidin-4-yl)-5,8-diazaspiro[2.6]nonane-8-carbonyl]benzenesulfonamide] | 0.1 to 1 µM | < 0.1 µM | 0.1 to 1 µM | > 1 µM |
| COc1cc(C(=O)N2CCN(c3ncnc4[nH]ccc34)CC3(CC3)C2)ccc1S(N)(=O)=O [Example 53, 2-methoxy-4-[5-(7H-pyrrolo[2,3-d]pyrimidin-4-yl)-5,8-diazaspiro[2.6]nonane-8-carbonyl]benzenesulfonamide] | 0.1 to 1 µM | 0.1 to 1 µM | > 1 µM | > 1 µM |
| NS(=O)(=O)c1ccc(/C=C/C(=O)N2CCN(c3ncnc4[nH]ccc34)CC3(CC3)C2)cc1 [Example 54, 4-[(E)-3-oxo-3-[5-(7H-pyrrolo[2,3-d]pyrimidin-4-yl)-5,8-diazaspiro[2.6]nonan-8-yl]prop-1-enyl]benzenesulfonamide] | < 0.1 µM | < 0.1 µM | 0.1 to 1 µM | 0.1 to 1 µM |
| CS(=O)(=O)c1ccc(CC(=O)N2CCN(c3ncnc4[nH]ccc34)CC3(CC3)C2)cc1 [Example 55, 2-(4-methylsulfonylphenyl)-1-[5-(7H-pyrrolo[2,3-d]pyrimidin-4-yl)-5,8-diazaspiro[2.6]nonan-8-yl]ethanone] | < 0.1 µM | < 0.1 µM | 0.1 to 1 µM | > 1 µM |
| NS(=O)(=O)c1ccc(OCC(=O)N2CCN(c3ncnc4[nH]ccc34)CC3(CC3)C2)cc1 [Example 63, 4-[2-oxo-2-[5-(7H-pyrrolo[2,3-d]pyrimidin-4-yl)-5,8-diazaspiro[2.6]nonan-8-yl]ethoxy]benzenesulfonamide] | < 0.1 µM | < 0.1 µM | < 0.1 µM | < 0.1 µM |
| NS(=O)(=O)c1ccc(NC(=O)C(=O)N2CCN(c3ncnc4[nH]ccc34)CC3(CC3)C2)cc1 [Example 64, 2-oxo-2-[5-(7H-pyrrolo[2,3-d]pyrimidin-4-yl)-5,8-diazaspiro[2.6]nonan-8-yl]-N-(4-sulfamoylphenyl)acetamide] | < 0.1 µM | < 0.1 µM | < 0.1 µM | 0.1 to 1 µM |
| NS(=O)(=O)c1ccc(-c2ccc(C(=O)N3CCN(c4ncnc5[nH]ccc45)CC4(CC4)C3)o2)cc1 [Example 65, 4-[5-[5-(7H-pyrrolo[2,3-d]pyrimidin-4-yl)-5,8-diazaspiro[2.6]nonane-8-carbonyl]-2-furyl]benzenesulfonamide] | < 0.1 µM | < 0.1 µM | 0.1 to 1 µM | 0.1 to 1 µM |
| O=C(Cc1ccc(I)cc1)N1CCN(c2ncnc3[nH]ccc23)CC2(CC2)C1 [Example 66, 2-(4-iodophenyl)-1-[5-(7H-pyrrolo[2,3-d]pyrimidin-4-yl)-5,8-diazaspiro[2.6]nonan-8-yl]ethanone] | < 0.1 µM | < 0.1 µM | 0.1 to 1 µM | 0.1 to 1 µM |
| Nc1nc(N2CCCN(Cc3ccccc3)C3(CC3)C2)c2cc[nH]c2n1 [Example 67, 4-(9-benzyl-5,9-diazaspiro[2.6]nonan-5-yl)-7H-pyrrolo[2,3-d]pyrimidin-2-amine] | > 1 µM | > 1 µM | > 1 µM | > 1 µM |
| Nc1nc(N2CCN(Cc3ccccc3)CC3(CC3)C2)c2cc[nH]c2n1 [Example 68, 4-(5-benzyl-5,8-diazaspiro[2.6]nonan-8-yl)-7H-pyrrolo[2,3-d]pyrimidin-2-amine] | > 1 µM | > 1 µM | > 1 µM | > 1 µM |
| N#CCCNS(=O)(=O)c1ccc(C(=O)N2CCN(c3ncnc4[nH]ccc34)CC3(CC3)C2)cc1 [Example 69, N-(2-cyanoethyl)-4-[5-(7H-pyrrolo[2,3-d]pyrimidin-4-yl)-5,8-diazaspiro[2.6]nonane-8-carbonyl]benzenesulfonamide] | 0.1 to 1 µM | 0.1 to 1 µM | 0.1 to 1 µM | > 1 µM |
| O=C(c1ccc(S(=O)(=O)NCC2CCCO2)cc1)N1CCN(c2ncnc3[nH]ccc23)CC2(CC2)C1 (stereo not shown) [Example 70] | 0.1 to 1 µM | 0.1 to 1 µM | 0.1 to 1 µM | > 1 µM |
| Cc1cc(S(N)(=O)=O)ccc1C(=O)N1CCN(c2ncnc3[nH]ccc23)CC2(CC2)C1 [Example 71, 3-methyl-4-[5-(7H-pyrrolo[2,3-d]pyrimidin-4-yl)-5,8-diazaspiro[2.6]nonane-8-carbonyl]benzenesulfonamide] | 0.1 to 1 µM | 0.1 to 1 µM | 0.1 to 1 µM | > 1 µM |
| CNS(=O)(=O)c1ccc(C(=O)N2CCN(c3ncnc4[nH]ccc34)CC3(CC3)C2)cc1 [Example 72, N-methyl-4-[5-(7H-pyrrolo[2,3-d]pyrimidin-4-yl)-5,8-diazaspiro[2.6]nonane-8-carbonyl]benzenesulfonamide] | 0.1 to 1 µM | < 0.1 µM | 0.1 to 1 µM | > 1 µM |

Source: patent US9586961B2, “Homopiperazine derivatives as protein tyrosine kinase inhibitors and pharmaceutical use thereof” (LEO PHARMA A/S, priority 2010, dated 2017)
